Key:
[1] = target: cAMP-dependent protein kinase catalytic subunit alpha (Homo sapiens, UniProt P17612); test: Selectivity interaction (Enzyme panel (AstraZeneca, AlphaScreen, functional assay)) EUB0000621a PRKACA
[2] = target: Ribosomal protein S6 kinase alpha-6 (Homo sapiens, UniProt Q9UK32); conditions: at 10 µM
[3] = target: Serine/threonine-protein kinase Nek7 (Homo sapiens) (UniProt Q8TDX7); test: Selectivity interaction (ActivX KiNativ screen (kinase selectivity in THP-1 cell lysates)) EUB0000639a NEK7; format: subcellular; conditions: lysate, at 0.2 µM
Chain of Serine/threonine-protein kinase Nek7 (Homo sapiens) (Q8TDX7 whole entry, looked up): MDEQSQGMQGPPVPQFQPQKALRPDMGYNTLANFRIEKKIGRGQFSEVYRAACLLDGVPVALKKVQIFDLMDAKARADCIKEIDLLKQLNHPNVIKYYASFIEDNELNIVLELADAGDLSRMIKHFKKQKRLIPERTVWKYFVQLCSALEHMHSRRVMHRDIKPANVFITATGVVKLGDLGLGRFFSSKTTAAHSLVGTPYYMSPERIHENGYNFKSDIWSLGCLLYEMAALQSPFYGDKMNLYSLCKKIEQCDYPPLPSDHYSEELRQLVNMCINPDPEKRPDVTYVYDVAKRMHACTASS

[4] = target: T1, Mitogen-activated protein kinase kinase kinase 3 (Homo sapiens) (UniProt Q99759); test: Selectivity interaction (KinomeScan (DiscoverX)) EUB0000595a MAP3K3; conditions: at 10 µM
T1 sequence (whole entry): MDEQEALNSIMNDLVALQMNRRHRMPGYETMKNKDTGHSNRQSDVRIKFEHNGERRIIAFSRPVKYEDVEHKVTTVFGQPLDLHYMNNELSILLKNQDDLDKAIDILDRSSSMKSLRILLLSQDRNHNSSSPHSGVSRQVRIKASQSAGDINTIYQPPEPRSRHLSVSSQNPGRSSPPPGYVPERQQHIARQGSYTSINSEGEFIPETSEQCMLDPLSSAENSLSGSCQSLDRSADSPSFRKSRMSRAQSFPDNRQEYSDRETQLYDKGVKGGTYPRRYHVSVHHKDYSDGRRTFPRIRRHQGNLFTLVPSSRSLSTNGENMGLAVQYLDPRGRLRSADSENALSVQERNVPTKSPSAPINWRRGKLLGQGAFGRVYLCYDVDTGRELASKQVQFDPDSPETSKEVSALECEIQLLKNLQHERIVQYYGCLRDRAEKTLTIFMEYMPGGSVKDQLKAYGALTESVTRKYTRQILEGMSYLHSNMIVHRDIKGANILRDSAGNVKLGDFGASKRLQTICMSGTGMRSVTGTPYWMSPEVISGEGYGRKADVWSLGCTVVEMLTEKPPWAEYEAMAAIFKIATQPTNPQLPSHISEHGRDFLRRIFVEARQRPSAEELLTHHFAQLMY

[5] = target: Serine/threonine-protein kinase WNK1 (Homo sapiens) (UniProt Q9H4A3); test: Selectivity interaction (KinomeScan (DiscoverX)) EUB0001079a WNK1; conditions: at 1 µM
[6] = target: Serine/threonine-protein kinase SIK1 (Homo sapiens) (UniProt P57059); test: Selectivity interaction (ProQinase) EUB0000171b SIK1
Chain of Serine/threonine-protein kinase SIK1 (Homo sapiens) (P57059 whole entry, the tested form may be a part): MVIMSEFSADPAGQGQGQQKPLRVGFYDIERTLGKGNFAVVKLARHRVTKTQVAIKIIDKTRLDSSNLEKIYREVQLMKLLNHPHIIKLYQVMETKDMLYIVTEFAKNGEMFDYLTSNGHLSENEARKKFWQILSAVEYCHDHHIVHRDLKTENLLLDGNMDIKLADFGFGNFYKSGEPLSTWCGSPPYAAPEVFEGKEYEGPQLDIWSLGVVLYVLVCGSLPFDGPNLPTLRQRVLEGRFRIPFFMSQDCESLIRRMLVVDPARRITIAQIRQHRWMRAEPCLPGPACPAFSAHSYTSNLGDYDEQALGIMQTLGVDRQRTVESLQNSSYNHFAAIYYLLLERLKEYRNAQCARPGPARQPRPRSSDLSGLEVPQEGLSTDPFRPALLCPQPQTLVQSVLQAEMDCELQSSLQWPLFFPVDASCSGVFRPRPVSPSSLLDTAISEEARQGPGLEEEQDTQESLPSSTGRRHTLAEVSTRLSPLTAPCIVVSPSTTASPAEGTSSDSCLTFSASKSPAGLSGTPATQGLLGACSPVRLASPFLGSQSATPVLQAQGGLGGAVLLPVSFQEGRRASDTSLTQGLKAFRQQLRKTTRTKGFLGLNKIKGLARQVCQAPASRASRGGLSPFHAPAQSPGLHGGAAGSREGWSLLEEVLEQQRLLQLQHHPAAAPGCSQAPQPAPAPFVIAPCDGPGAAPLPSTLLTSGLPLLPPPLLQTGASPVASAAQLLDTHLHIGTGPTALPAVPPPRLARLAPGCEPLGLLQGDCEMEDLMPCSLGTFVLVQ

[7] = target: LIM domain kinase 2 (Homo sapiens) (UniProt P53671); test: Selectivity interaction (ProQinase) EUB0000171b LIMK2
Chain of LIM domain kinase 2 (Homo sapiens) (P53671 whole entry, looked up, the tested form may be a part): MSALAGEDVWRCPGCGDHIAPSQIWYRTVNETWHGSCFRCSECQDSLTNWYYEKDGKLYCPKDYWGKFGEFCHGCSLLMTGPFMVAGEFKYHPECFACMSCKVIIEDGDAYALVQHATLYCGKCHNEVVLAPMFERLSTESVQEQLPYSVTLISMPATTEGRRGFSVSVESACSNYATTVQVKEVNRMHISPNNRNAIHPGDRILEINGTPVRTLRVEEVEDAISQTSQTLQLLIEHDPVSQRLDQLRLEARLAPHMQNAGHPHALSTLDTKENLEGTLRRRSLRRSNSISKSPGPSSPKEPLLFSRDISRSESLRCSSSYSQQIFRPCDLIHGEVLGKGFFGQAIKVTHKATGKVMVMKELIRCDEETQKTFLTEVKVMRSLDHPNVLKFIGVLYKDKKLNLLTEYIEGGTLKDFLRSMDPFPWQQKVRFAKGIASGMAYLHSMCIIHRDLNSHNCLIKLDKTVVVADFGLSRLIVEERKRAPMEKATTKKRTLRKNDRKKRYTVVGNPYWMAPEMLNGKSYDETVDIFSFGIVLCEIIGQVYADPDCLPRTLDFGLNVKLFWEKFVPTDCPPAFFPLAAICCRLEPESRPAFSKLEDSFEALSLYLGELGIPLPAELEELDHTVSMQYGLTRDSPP

[8] = target: Serine/threonine-protein kinase PAK 1 (Homo sapiens) (UniProt Q13153); test: Selectivity interaction (KinomeScan (DiscoverX)) EUB0000655a PAK1; conditions: at 10 µM
[9] = target: Serine/threonine-protein kinase MRCK alpha (Homo sapiens) (UniProt Q5VT25); test: Selectivity interaction (KinomeScan (DiscoverX)) EUB0001619a CDC42BPA; conditions: at 1 µM
Chain of Serine/threonine-protein kinase MRCK alpha (Homo sapiens) (Q5VT25 whole entry): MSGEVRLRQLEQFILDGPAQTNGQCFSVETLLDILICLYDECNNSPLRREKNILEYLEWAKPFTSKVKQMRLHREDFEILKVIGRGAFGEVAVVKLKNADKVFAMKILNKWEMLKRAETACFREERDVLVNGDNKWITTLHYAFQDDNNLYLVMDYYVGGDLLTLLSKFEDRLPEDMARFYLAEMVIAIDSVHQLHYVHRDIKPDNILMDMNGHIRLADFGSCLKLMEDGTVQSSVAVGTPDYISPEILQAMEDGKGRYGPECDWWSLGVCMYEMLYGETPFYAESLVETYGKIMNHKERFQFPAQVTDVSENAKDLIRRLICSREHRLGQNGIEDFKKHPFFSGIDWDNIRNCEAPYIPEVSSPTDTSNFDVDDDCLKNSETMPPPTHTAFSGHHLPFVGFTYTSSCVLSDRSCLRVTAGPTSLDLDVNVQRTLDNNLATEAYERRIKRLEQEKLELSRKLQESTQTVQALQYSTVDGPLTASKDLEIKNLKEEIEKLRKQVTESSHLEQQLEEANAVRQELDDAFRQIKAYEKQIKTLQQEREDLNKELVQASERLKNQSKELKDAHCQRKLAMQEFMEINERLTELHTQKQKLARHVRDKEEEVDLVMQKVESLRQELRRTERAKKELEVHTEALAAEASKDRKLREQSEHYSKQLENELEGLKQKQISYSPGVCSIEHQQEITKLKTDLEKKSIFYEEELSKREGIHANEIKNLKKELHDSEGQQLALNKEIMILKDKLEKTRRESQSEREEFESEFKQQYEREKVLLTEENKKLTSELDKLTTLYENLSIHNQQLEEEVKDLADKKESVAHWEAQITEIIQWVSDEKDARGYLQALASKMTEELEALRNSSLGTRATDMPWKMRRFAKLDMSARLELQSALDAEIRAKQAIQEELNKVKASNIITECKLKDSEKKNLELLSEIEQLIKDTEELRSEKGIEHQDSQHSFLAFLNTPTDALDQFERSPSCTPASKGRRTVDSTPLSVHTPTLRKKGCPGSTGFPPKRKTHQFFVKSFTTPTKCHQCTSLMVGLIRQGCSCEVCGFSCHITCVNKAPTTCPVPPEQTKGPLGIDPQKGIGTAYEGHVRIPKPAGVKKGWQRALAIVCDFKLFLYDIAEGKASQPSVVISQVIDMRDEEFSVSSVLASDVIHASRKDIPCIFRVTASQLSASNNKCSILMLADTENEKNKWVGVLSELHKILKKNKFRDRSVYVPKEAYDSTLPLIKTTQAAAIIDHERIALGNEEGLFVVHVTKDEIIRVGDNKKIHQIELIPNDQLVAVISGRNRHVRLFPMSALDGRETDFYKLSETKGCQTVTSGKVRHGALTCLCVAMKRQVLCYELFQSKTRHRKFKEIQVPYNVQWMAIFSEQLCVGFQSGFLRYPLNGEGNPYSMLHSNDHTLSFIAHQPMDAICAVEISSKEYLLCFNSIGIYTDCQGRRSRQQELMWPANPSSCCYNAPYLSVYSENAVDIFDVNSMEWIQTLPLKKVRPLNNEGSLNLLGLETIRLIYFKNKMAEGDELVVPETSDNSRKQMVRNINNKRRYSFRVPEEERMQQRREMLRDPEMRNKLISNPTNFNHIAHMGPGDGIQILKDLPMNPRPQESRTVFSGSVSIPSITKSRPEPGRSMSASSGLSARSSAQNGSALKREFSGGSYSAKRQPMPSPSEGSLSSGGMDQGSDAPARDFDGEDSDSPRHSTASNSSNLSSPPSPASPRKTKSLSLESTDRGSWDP

[10] = target: SRSF protein kinase 2 (Homo sapiens) (UniProt P78362); test: Selectivity interaction (KinomeScan (DiscoverX)) EUB0000618a SRPK2; conditions: at 10 µM
[11] = target: RAF proto-oncogene serine/threonine-protein kinase (Homo sapiens) (UniProt P04049); test: Selectivity interaction (KinomeScan (DiscoverX)) EUB0000618a RAF1; conditions: at 10 µM
[12] = target: 5'-AMP-activated protein kinase catalytic subunit alpha-1 (Homo sapiens, UniProt Q13131); test: Selectivity interaction (KinomeScan (DiscoverX)) EUB0000607a PRKAA1; conditions: at 10 µM
Chain of 5'-AMP-activated protein kinase catalytic subunit alpha-1 (Q13131 whole entry, looked up): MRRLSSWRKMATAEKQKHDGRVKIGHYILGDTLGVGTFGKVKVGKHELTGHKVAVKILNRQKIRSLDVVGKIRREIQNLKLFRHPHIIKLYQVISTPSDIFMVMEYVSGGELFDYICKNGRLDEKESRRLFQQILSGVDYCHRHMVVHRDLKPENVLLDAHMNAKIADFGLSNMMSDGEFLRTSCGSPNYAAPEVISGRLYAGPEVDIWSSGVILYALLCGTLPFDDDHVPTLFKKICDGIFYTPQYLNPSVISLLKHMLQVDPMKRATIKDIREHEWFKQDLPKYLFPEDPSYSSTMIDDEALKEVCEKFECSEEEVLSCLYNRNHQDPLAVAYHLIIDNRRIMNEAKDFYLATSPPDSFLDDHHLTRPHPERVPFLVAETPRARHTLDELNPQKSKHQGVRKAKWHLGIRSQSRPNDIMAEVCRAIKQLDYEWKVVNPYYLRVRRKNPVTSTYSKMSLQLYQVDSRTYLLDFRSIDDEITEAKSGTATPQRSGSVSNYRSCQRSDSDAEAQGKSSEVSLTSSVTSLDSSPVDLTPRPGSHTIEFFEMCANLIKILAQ

[13] = target: T2, Mitogen-activated protein kinase kinase kinase kinase 2 (Homo sapiens) (UniProt Q12851); test: Selectivity interaction (SelectScreen profiling (Invitrogen)) EUB0000607a MAP4K2; conditions: at 2 µM
T2 sequence (whole entry): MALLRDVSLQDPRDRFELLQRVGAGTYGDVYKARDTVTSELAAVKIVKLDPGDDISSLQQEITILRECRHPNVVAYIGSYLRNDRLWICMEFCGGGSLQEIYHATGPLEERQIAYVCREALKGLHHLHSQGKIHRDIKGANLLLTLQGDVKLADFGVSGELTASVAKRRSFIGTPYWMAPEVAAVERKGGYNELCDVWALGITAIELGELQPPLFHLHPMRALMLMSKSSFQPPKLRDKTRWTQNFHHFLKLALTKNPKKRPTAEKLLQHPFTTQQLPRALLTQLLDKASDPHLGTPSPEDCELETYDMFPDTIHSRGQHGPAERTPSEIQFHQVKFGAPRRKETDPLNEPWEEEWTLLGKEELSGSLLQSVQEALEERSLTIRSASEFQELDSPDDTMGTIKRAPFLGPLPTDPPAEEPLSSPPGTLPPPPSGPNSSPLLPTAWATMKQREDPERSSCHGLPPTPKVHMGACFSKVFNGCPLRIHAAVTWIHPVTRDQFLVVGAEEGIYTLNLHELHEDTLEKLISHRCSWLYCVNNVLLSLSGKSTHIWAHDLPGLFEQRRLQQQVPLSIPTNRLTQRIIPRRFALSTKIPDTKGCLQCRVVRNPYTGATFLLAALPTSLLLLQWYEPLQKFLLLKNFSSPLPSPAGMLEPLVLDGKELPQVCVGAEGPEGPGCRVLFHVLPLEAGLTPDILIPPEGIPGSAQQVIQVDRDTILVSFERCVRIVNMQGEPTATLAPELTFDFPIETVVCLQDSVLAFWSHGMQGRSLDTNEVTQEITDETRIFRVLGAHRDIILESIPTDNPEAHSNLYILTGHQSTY

Chain of Ribosomal protein S6 kinase alpha-6 (Q9UK32 whole entry): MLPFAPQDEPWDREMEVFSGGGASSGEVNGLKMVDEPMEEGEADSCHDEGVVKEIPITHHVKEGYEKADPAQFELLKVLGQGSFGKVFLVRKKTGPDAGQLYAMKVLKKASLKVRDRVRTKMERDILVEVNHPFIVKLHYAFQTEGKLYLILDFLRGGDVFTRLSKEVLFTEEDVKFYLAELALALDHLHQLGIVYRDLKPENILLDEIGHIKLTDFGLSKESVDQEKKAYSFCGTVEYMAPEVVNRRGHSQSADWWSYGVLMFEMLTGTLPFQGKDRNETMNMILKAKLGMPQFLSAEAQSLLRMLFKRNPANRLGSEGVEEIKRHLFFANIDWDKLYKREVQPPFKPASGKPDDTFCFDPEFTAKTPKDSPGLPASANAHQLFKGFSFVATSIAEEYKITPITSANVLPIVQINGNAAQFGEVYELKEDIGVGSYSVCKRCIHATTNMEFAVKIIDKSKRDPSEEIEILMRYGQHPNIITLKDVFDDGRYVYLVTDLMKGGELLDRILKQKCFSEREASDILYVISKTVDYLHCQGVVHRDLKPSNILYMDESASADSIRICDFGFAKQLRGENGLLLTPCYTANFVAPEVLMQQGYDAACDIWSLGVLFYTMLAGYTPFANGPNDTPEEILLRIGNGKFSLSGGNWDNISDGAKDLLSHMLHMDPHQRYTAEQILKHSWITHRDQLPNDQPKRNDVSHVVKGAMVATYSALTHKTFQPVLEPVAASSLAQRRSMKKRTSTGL

`Cc1cc([C@@H](C)Nc2ccccc2C(=O)O)c2nc(N3CCOCC3)cc(=O)n2c1` [AZD-6482] gave an IC50 [1] of over 999 µM and a % of control [2] of 71%.
Work on `CC[C@@H]1[C@H](F)C(=O)N[C@@H]1COc1nccc2cc(C(N)=O)c(OC)cc12` [ZIMLOVISERTIB] yielded a % of inhibition [3] of -2.2%.
`COCC(=O)NC/C=C/c1ccc2ncnc(Nc3ccc(Oc4ccc(C)nc4)c(C)c3)c2c1` [CP-724714] was tested, and the % of control [4] was 100%.
`Nc1cnc(N2CCc3cc(S(=O)(=O)Nc4c(F)cc(Cl)cc4F)cc(N4CCCC4=O)c32)nc1` [TP-020n] showed a % of control [5] of 100%.
In the case of `C=CC(=O)Nc1cccc(C(=O)Nc2ccc(Nc3cc(-c4[nH]c(SC)nc4C)ccn3)cc2)c1`, the % of control ([6]; at 1 µM) is reported as 107%, the % of control ([6]; at 5 µM) is reported as 102% and the % of control ([7]; at 1 µM) is reported as 90%. The % of control ([7]; at 5 µM) was 80%.
`CN(C)CCOc1ccc(-c2nc(-c3ccncc3)c(-c3ccc4c(c3)CC/C4=N\O)[nH]2)cc1` gave a % of control [8] of 87%.
Work on `N#Cc1cccc(-c2c[nH]c3ncnc(N4CCOCC4)c23)c1` yielded a % of control [9] of 100%.
`O[C@H]1CC[C@H](Nc2ncc3nc(Nc4c(F)cc(F)cc4F)n([C@H]4CCOC4)c3n2)CC1` gave a % of control [10] of 100% and a % of control [11] of 100%.
For `CNC(=O)Nc1ccc(-c2nc(N3CC4CCC(C3)O4)c3cnn(C4CCC5(CC4)OCCO5)c3n2)cc1`, the % of control [12] was 94% and the % of inhibition [13] was 3%.
